≈ marks a conversion by molar mass, not a printed value.
Key:
PC12 cells = assay: In-vitro neuroprotection-I (H2O2 injury, MTT); assay type: cell-based; conditions: Rattus norvegicus, PC-12, 48 h compound, then 200 μM H2O2 24 h, MTT survival rate
Description: All samples were made into 60 mM stock solution by DMSO, which were 200 times diluted to 300 μM by medium. And the final concentration was further diluted into different concentrations by media.
Control: Normal cell-plating and same cell medium as other group. 24 hours later, the medium was discarded. Incubate the cell in new media for 24 hours. No compound and hydrogen peroxide treatment. Other steps were the same as the sample test as mentioned below did.
Blank: no cell plating, cell medium, and other steps were the same as the sample test as mentioned below did.
(§1) After resuscitating, the PC12 cells were cultured in RPMI-1640 containing 10% horse serum and 5% Fetus Bovine Serum (FBS) under 5% CO2 at 37° C. for two weeks. The medium was changed every other day. The compounds were diluted into solutions of 12.5, 25, 50, 100, 200, 300 μM with culture medium (except that examples 33-45 with additional solutions of 400 μM and 500 μM). The PC 12 cells were seeded into a 96-well plate at a density of 8×10^3 cells/well and cultured in a 37° C., 5% CO2 incubator for 24 hours. Removed the medium, the cells were added with the compound solutions of different concentrations as test solutions for another 48 h incubation in a 37° C., 5% CO2 incubator. After the incubation, apart from the blank and control groups, the wells (including 0 μM drug group) were added to the medium-prepared 200 μM H2O2, and continued for another 24 h incubation in a 37° C., 5% CO2 incubator.
After the incubation, the wells were added with 20 μL 5 mg/mL MTT and incubated for 4 hours at 37° C. Carefully removed the medium and added 150 μL DMSO. The plates were placed on an enzyme-labeled instrument and vibrated for 5 min. The absorbance Atest solution were obtained at 490 nm with the Ablank of the well without cells and the Acontrol of the well with untreated cells. The survival rate of the cells in every well by the formula survival rate (%)=(Atest solution−Ablank)/(Acontrol−Ablank)*100%.

[1] = tested on: B6SJL-Tg (SOD1*G93A) mice; assay: In vivo efficacy test of ALS model; set-up: key to Rotarod Time / PaGE: “+” indicates a significant difference compared with the solvent group, p < 0.05; conditions: for Plasma SOD concentration on day 28th(U/mL): ELISA; for PaGE / Rotarod Time: versus solvent group; for Fall latency in rota-rod test and PaGE test: 28-day drug intervention
Description: B6SJL-Tg (SOD1*G93A) mice were intraperitoneally administered single-doses once a day for 4 consecutive weeks. The weight of the mice was determined before and after the administration every week. The motor function of the mice was determined by rota-rod and PaGE tests with the time points before and after 4-week administration. The mice plasma was collected and detected for SOD levels through ELISA. The Index Evaluation described below was used to evaluate the efficacy of the compounds of the examples in ALS model and to what extent the compounds of the examples improve the survival period and motor activity.
The animals were delivered to the SPF animal room and raised for more than one week. Five days before the test, the mice were accustomed to a round of tests per day. The mice were randomly divided into groups according to their body weights, 8 mice for each group. Among them, the solvent group was given with the same volume of solvent (physiological saline) every day.
The mice were administered with a volume of 10 ml/kg.
i.p once a day for 4 weeks.
Index evaluation time started from the beginning of the experiment to the death of the animals.
1) ALS onset time: For 2 consecutive observation days, the mice appeared limb, tremor and/or limb weakness at tail suspension were determined as the ALS onset. The determination of limb weakness: the mice were placed on the rota-rod device with a diameter of 3.5 cm. The speed is set to 15 rpm to record the longest fall latency divided by 420 s. The mice of less 420 s were determined as limb weakness.
2) Rota-rod Test: The mice were placed on the rota-rod device with a diameter of 3.5 cm. The speed is set to 12 rpm to record the longest fall latency divided by 180 s. The latency of more than 180 s was recorded as 180 s, and actual time was recorded when less than 180 s.
3) Paw Grip Endurance (PaGE) Test: The mice were placed on the traditional wire grid. The grid was gently shaken to cause the mice to tighten its grip on the wires then inverted, and time recording commenced. The time was recorded until the mouse lost its grip in hind limbs divided by 90 s. The time more than 90 s was recorded as 90 s, while the time less than 90 s was recorded by its actual time. The test was completed in triplicate with the highest score used for analysis.
5) Plasma SOD concentration: The blood was collected and mixed with EP tube containing heparin before and after administration at the 4th week, and then centrifuged at 1000 g for 10 min. The plasma was collected and stored in aliquots at −70° C. ELISA kit was used to detect plasma SOD levels.

Cytotoxic test (MTT) = assay type: cell-based; conditions: rat, PC12 cells, 48 h incubation
Description: as §1, with “(except” for “(except that”, “PC12” for “PC 12”, “1.2×10^4” for “8×10^3”, “Remove” for “Removed”, “incubator.” for “incubator. After the incubation, apart from the blank and control groups, the wells (including 0 μM drug group) were added to the medium-prepared 200 μM H2O2, and continued for another 24 h incubation in a 37° C., 5% CO2 incubator.”
After the incubation, the wells were added with 20 μL 5 mg/mL MTT and incubated for 4 hours at 37° C. Carefully removed the medium and added 150 μL DMSO. The plates were placed on an enzyme-labeled instrument and vibrated for 5 min. The absorbance Atest solution were obtained at 490 nm with the Ablank of the well without cells and the Acontrol of the well with untreated cells. The survival rates of the cells in every well were calculated by the formula as Survival rate (%)=(Atest solution−Ablank)/(Acontrol−Ablank)*100%

[2] = tested on: MCAO model (middle cerebral artery ischemia-reperfusion); assay: In vivo drug efficacy test of MCAO model; conditions: SD rats, MCAO 2 h then reperfusion, tail vein infusion 30 min; for Cerebral infarction area (%): TTC staining, infarct area to whole brain area; for Improvements of nerve function (%): score at 24 h versus model control
[3] = Solubility test in distilled water; assay type: physicochemical; conditions: thermodynamic from solid, 25° C.
Description: Test method: the dry compound was slowly dissolved into about 0.5 ml distilled water in a 5 ml EP tube until saturation (turbid after ultra-sonic vibration at 25° C.). The solution was filtered and moved to another clean 5 ml EP tube (pre-weighed) and the tube was weighed again to calculate the solution weight. The solution was freeze dried. The remaining solute was weighed to calculate the solvent weight, and then the compound solubility in water was determined.

[4] = Stability studies (high humidity, illumination, high temperature, seven days); assay type: physicochemical; conditions: 25° C. ± 2° C., 60% ± 5 RH, 4500 ± 500 LX
Description: The stability of samples from some embodiments were examined under high humidity (25° C.±2° C., 90%±5RH), illumination (25° C.±2° C., 60%±5RH, 4500±500LX), high temperature (60° C.±2° C., 60%±5RH), which were stored in the stability incubator for seven days, for the changes of related substances and contents, as shown in Table 2.

[5] = 86 μmol/kg i.p. once a day for 4 weeks

| SMILES | solubility [3] [µg/mL] | EC50 (PC12 cells) [µM] | Onset time(d) [1, 5] | Survival time [1, 5] [days] | Plasma SOD concentration on day 28th(U/mL) [1, 5] | PaGE [1, 5] | Rotarod Time [1, 5] | Fall latency in rota-rod test and PaGE test [1] | IC50 at 48 h (Cytotoxic test (MTT)) [µM] | Cerebral infarction area (%) [2] [%] | Improvements of nerve function (%) [2] [%] | Onset time [1, 5] [days] | Content Drop, Illumination [4] [%] | Stability, Illumination: changes of related substances and contents [4] |
| --- | --- | --- | --- | --- | --- | --- | --- | --- | --- | --- | --- | --- | --- | --- |
| Cc1cc(OCOC(=O)c2cc(N(C)C)ccc2O)n(-c2ccccc2)n1 [Compound 24, (3-methyl-1-phenylpyrazole-5-)oxymethyl-(2-hydroxy-5-N,N-dimethyl)benzoate] |  | 44.7 | 118.29 ± 6.32* d | 147.71 ± 8.94 | 150.55 ± 11.88* U/mL | + | + | better than the marketed drug edaravone | 272 |  |  |  |  |  |
| Cc1cc(OC2O[C@H](CO)[C@@H](O)[C@H](O)[C@H]2O)n(-c2ccccc2)n1 (stereo partly drawn) [Compound 33, 1-phenyl-3-methyl-5-O-D-glucoside-pyrazole] | 10100 (≈ 30 mM) | 112 | 118.25 ± 5.87* d | 149.88 ± 8.37 | 155.18 ± 15.37* U/mL | + | + | better than the marketed drug edaravone | > 300 | 14.0 | 24.0 |  |  |  |
| Cc1cc(OC2O[C@H](CO)[C@@H](O)[C@H](O)[C@@H]2O)n(-c2ccccc2)n1 (stereo partly drawn) [Compound 34, 1-phenyl-3-methyl-5-O-D-mannoside-pyrazole] | 12300 (≈ 36.6 mM) | 120 |  |  |  |  |  |  | > 300 | 14.5 | 21.1 |  |  |  |
| Cc1cc(OC2O[C@H](CO)[C@H](O)[C@H](O)[C@H]2O)n(-c2ccccc2)n1 (stereo partly drawn) [Compound 35, 1-phenyl-3-methyl-5-O-D-galactoside-pyrazole] | 18000 (≈ 53.5 mM) | 87.9 |  |  |  |  |  |  | > 300 | 15.8 | 22.2 |  |  |  |
| Cc1cc(OC2C[C@@H](O)[C@H](O)[C@@H](CO)O2)n(-c2ccccc2)n1 (stereo partly drawn) [Compound 36, 1-phenyl-3-methyl-5-O-D-(2-deoxy)glucoside-pyrazole] | 4200 (≈ 13.1 mM) | 79.6 |  |  |  |  |  |  | > 300 | 14.1 | 24.1 |  |  |  |
| CC1=NN(c2ccccc2)C(=O)C1 [Edaravone, edaravone, reference compound] | < 1000 | 171 |  | 147.00 ± 8.94 | 153.88 ± 9.91* U/mL | + | + |  |  | 20.1 | 15.7 | 116.14 ± 7.82 | 4 | dropped significantly |

Now from value to compound, other results behind:

| solubility [3] [µg/mL] | SMILES | EC50 (PC12 cells) [µM] | Onset time(d) [1, 5] | Survival time [1, 5] [days] | Plasma SOD concentration on day 28th(U/mL) [1, 5] | PaGE [1, 5] | Rotarod Time [1, 5] | Fall latency in rota-rod test and PaGE test [1] | IC50 at 48 h (Cytotoxic test (MTT)) [µM] | Cerebral infarction area (%) [2] [%] | Improvements of nerve function (%) [2] [%] | Onset time [1, 5] [days] | Content Drop, Illumination [4] [%] | Stability, Illumination: changes of related substances and contents [4] |
| --- | --- | --- | --- | --- | --- | --- | --- | --- | --- | --- | --- | --- | --- | --- |
| 6500 (≈ 17.2 mM) | CC(=O)N[C@H]1C(Oc2cc(C)nn2-c2ccccc2)O[C@H](CO)[C@@H](O)[C@@H]1O (stereo partly shown) [Compound 37] | 90 |  |  |  |  |  |  | > 500 | 17.6 | 17.5 |  |  |  |
| 3800 (≈ 12.4 mM) | Cc1cc(OC2OC[C@@H](O)[C@H](O)[C@H]2O)n(-c2ccccc2)n1 (stereo partly drawn) [Compound 38, 1-phenyl-3-methyl-5-O-D-xylopyranoside-pyrazole] |  |  |  |  |  |  |  | > 500 | 17.8 | 17.0 |  |  |  |
| 5100 (≈ 16.6 mM) | Cc1cc(OC2O[C@H](CO)[C@@H](O)[C@H]2O)n(-c2ccccc2)n1 (stereo partly drawn) [Compound 39, 1-phenyl-3-methyl-5-O-D-riboside-pyrazole] | 55 |  |  |  |  |  |  | > 500 | 18.0 | 16.9 |  |  |  |
| 3000 (≈ 10.3 mM) | Cc1cc(OC2C[C@H](O)[C@@H](CO)O2)n(-c2ccccc2)n1 (stereo partly drawn) [Compound 40, 1-phenyl-3-methyl-5-O-D-(2-deoxy)riboside-pyrazole] | 54.7 |  |  |  |  |  |  | > 500 | 18.5 | 16.8 |  |  |  |

— patent US11692004B2, “Substituted pyrazole compound, preparation method therefor, pharmaceutical composition and medical use thereof” (JIANGSU VANGUARD PHARMACEUTICAL CO., LTD., priority 2018, dated 2023)
